According to patent publication US5010095A, “N-(W-substituted alkyl)-'-(imidazol-4-yl)alkyl)guanidine” (Cedona Pharmaceuticals B.V., priority 1986, dated 1991):
Entries after “also recorded” stand apart in the source; their conditions may differ. Where two headings read alike, the source gives them in different places.

Experiments:
[1] = target: T1, histamine H2 (guinea-pig right atrium) (Cavia porcellus, UniProt P47747); test: Histamine H2-activity, guinea-pig right atrium
T1 construct: from tissue; host or cells: guinea-pig right atrium (isolated organ)
Text: (§1) The values for the H1 -activity given are the mean of at least two experiments in quadruplicate, while the values for the H2 -activity result from at least two experiments in duplicate.
(§2) Guinea-pig right atrium H2
(§3) Ther., 19, 545-550 (1984).

[2] = target: T2, histamine H1 (guinea-pig ileum) (Cavia porcellus, UniProt P31389); test: Histamine H1-activity, guinea-pig ileum
T2 construct: from tissue; host or cells: guinea-pig ileum (isolated organ)
Text: as §1

[3] = target: T3, histamine H2 (guinea-pig gastric fundus) (Cavia porcellus, UniProt P47747); test: Histamine H2-activity, acid secretion of the isolated gastric fundus of the guinea-pig
T3 construct: acid secretion of the isolated gastric fundus of the guinea-pig; from tissue; host or cells: guinea-pig gastric fundus (isolated organ)
Text: as §1
(§4) Guinea-pig gastric acid secretion (H2)

[4] = target: T4, histamine H2 (Cavia porcellus, UniProt P47747); test: Histamine H2-activity, overall discussion (atrium/gastric fundus); parameters: species or system guinea-pig; conditions: atrium and fundus; structure-activity discussion
T4 construct: functional chronotropy and acid secretion
Text: as §1, §2, §3, §4

[5] = target: T5, histamine H1 (Cavia porcellus, UniProt P31389); test: Histamine H1-activity, overall discussion (ileum/trachea); parameters: species or system guinea-pig; conditions: structure-activity discussion
T5 construct: functional contraction
Method: The results of pharmacological tests with said new compounds are summarized in Table A (H1 -activity) and Table B (H2 -activity). The values for the H1 -activity given are the mean of at least two experiments in quadruplicate, while the values for the H2 -activity result from at least two experiments in duplicate.
(§5) Male guinea-pigs (350-500 g) were killed by a blow on the head and the trachea removed. Single segments were cut from the trachea, loaded with 0.4 g and placed in an organ bath (35° C.) containing 120 mM NaCl, 6 mM KCl, 1 mM MgSO4, 2.5 mM CaCl2, 1 mM NaH2 PO4, […] and 6 mM glucose. The organ bath was gassed with oxygen containing 5% CO2. PD2, intrinsic acitivity and antagonistic activity of the test compounds were determined from isotonically recorded, cumulative dose-response curves.

[6] = target: T6, histamine H1 (guinea-pig trachea) (Cavia porcellus, UniProt P31389); test: Histamine H1-activity, guinea-pig trachea; conditions: for Kb: ± 0,2, mean of at least two experiments in quadruplicate
T6 construct: Single segments were cut from the trachea; from tissue; host or cells: guinea-pig trachea (isolated segments)
Method: as §1, §5

[7] = system: histamine H2; conditions: cited from earlier work
[8] = guinea-pig right atrium, ±0,1, at least two experiments in duplicate
[9] = read-out: Histamine H2-activity, α (intrinsic activity), guinea-pig right atrium, at least two experiments in duplicate
[10] = guinea-pig ileum, ±0,2, mean of at least two experiments in quadruplicate
[11] = guinea-pig gastric fundus, ±0,2, at least two experiments in duplicate
[12] = read-out: Histamine H2-activity, α (intrinsic activity), guinea-pig gastric fundus, at least two experiments in duplicate
[13] = guinea pig, read-out: Histamine H2-activity, atrium, α (intrinsic activity)
[14] = guinea pig, read-out: Histamine H2-activity, gastric fundus, α (intrinsic activity)
[15] = gastric fundus, versus compound I

T1 sequence (P47747 whole entry): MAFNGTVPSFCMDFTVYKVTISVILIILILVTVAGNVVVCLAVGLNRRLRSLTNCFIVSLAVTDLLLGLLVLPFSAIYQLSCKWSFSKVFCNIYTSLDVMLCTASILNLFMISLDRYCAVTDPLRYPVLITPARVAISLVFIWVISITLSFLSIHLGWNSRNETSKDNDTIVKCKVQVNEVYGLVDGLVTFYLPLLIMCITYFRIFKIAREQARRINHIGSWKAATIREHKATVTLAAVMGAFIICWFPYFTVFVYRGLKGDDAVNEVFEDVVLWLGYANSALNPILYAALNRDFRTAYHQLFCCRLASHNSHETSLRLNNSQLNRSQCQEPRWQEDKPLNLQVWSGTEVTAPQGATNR
T3 sequence (P47747 whole entry): as above
T4 sequence (P47747 whole entry): as above
T2 sequence (P31389 whole entry): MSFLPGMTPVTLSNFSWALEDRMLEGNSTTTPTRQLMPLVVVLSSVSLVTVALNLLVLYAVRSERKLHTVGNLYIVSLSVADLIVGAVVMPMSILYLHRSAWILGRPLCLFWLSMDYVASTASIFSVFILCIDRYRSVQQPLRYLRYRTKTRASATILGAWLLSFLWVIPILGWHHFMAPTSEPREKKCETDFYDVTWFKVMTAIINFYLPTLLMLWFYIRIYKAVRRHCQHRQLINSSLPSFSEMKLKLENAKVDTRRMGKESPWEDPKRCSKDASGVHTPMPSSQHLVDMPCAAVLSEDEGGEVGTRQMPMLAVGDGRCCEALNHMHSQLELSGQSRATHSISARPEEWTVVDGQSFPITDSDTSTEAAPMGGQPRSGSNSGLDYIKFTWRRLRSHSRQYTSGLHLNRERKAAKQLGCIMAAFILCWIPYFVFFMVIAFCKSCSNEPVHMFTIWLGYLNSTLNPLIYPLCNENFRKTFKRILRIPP
T6 sequence (P31389 whole entry): as above
T5 sequence (P31389 whole entry): as above

EC50 [1, 8]	Emax [1, 9]	Kb [2, 10]	EC50 [3, 11]	Emax [3, 12]	Kb ([6]; guinea-pig trachea)	Structure (SMILES)	H2-activity, comparison in words [4]	H1-activity, comparison in words [5]	further results
20 nM	100%	501 nM				N=C(NCCCc1c[nH]cn1)NCCC(c1ccccc1)c1ccccc1 [Compound IX, N-(3.3-diphenylpropyl)-N'-[3-(imidazol-4-yl)propyl]guanidine]	Analogous results	Analogous results; also recorded: almost as potent H1 -antagonists as compound I	H2-activity on the atrium, comparison in words ([1]; guinea-pig right atrium): remarkable high potency on the guinea-pig right atrium; also recorded: almost as potent as impromidine on the atrium; also recorded: most potent compounds of this series on the guinea-pig right atrium
398 nM	100%	25.1 nM	316 nM	70%	15.8 nM	N=C(NCCCc1c[nH]cn1)NCCN(Cc1ccccc1)c1ccccc1 [Compound XI, N-[2-(N'-benzyl-N'-phenylamino)ethyl]-N"-[3-(imidazol-4-yl)propyl]guanidine]		slightly more potent H1 -antagonist than the oxygen analogue compound II; also recorded: most potent H1 -antagonists of this series of impromidine analogues	potency relative to histamine on the atrium, in words ([1]; atrium): about twice as potent as histamine on the atrium; activity relative to impromidine, atrium ([1]; atrium, % of the activity of impromidine): about 4%; activity relative to impromidine, gastric fundus ([3]; gastric fundus, % of the activity of impromidine): about 1%; activity relative to histamine, gastric fundus ([3]; gastric fundus, times the activity of histamine): 10 times
100 nM	100%	200 nM	2510 nM	90%	631 nM	N=C(NCC=C(c1ccccc1)c1ccccc1)NCCCc1c[nH]cn1 [Compound X]		almost as potent H1 -antagonists as compound I	decrease in H2-activity, atrium, on introduction of a double bond ([1]; atrium, introduction of a double bond (saturated analogue: IX)): 4 fold; H2-activity on the atrium, comparison in words ([1]; guinea-pig right atrium): most potent compounds of this series on the guinea-pig right atrium
						NCCc1c[nH]cn1 [Histamine, reference compound]			Emax [1, 13]: 100%; Emax [3, 14]: 100%
						N=C(NCCSC(c1ccccc1)c1ccccc1)NCCc1c[nH]cn1 [II, N-[2-(diphenylmethylthio)ethyl]-N'-[2-imidazol-4-yl)ethyl guanidine]	marked decrease in H2 -activity, both on the atrium and on the fundus	no effect on the H1 -activity	EC50 [1]: 15800 nM; Emax [1, 13]: 80%; Kb [2]: 398 nM; EC50 [3]: 12600 nM; Emax [3, 14]: 50%
3160 nM	90%	31.6 nM	1580 nM	40%	25.1 nM	N=C(NCCCc1c[nH]cn1)NCCOC(c1ccccc1)c1ccccc1 [III, N-[2-(diphenylmethoxy)ethyl]-N'-[3-(imidazol-4-yl)propyl] guanidine]		most potent H1 -antagonists of this series of impromidine analogues	decrease in H2-agonism, atrium, versus compound I ([1]; atrium, sulphur of compound I replaced by oxygen): 20 fold; H1 potency relative to the starting compound, trachea ([6]; guinea-pig trachea, versus sulphur starting compound (I)): 25 times; H1 potency relative to the starting compound, ileum ([2]; guinea-pig ileum, versus sulphur starting compound (I)): ten times as potent as the starting compound; change in intrinsic activity on the gastric fundus, in words [3, 15]: remarkable decrease in intrinsic activity; change in pD2 on the gastric fundus, in words [3, 15]: less pronounced
						Cc1[nH]cnc1CSCCNC(=N)NCCCc1c[nH]cn1 [Impromidine, N-[2-(5-methylimidazol-4-ylmethylthio)ethyl]-N'-[3-(imidazol-4-yl)propyl]guanidine, reference compound]			potency relative to histamine ([7]; dependent on the used test system, Proc. VIIIth Internat. Symp. Med. Chem. Uppsala 1985): 5-800 times; stimulation of gastric acid secretion, in words ([7]; drawback for clinical use): relatively high potency in stimulating the gastric acid secretion; histamine H2-agonist character, in words ([7]; literature): specific and the most potent histamine H2 -agonist; also recorded: either behaves like a partial or like a complete agonist; Kb [2]: 3160 nM; EC50 [3]: 3.16 nM; Emax [3, 14]: 100%
2510 nM	90%	631 nM	10000 nM	0%		N=C(NCCc1c[nH]cn1)NCCC(c1ccccc1)c1ccccc1 [VIII, N-(3.3-diphenylpropyl)-N'-[2-(imidazol-4-yl)ethyl] guanidine]		almost as potent H1 -antagonists as compound I	H2-activity on the atrium, comparison in words ([1]; guinea-pig right atrium): remarkable high potency on the guinea-pig right atrium
63.1 nM	100%	3160 nM	25.1 nM	100%		NC(=NCCCc1c[nH]cn1)NCCSCc1ccccc1 [XII, reference compound]		no change in H1 -activity	decrease in H2-activity, atrium, versus impromidine ([1]; guinea-pig atrium, 5-methylimidazole of impromidine replaced by phenyl): 4 fold; decrease in H2-activity, gastric fundus, versus impromidine ([3]; gastric fundus, 5-methylimidazole of impromidine replaced by phenyl): 8 fold
						CN(C)CCCSC(=N)N [dimaprit, reference compound]			effect on resting state and histamine induced contractions of the trachea ([6]; up to 10^-3 M): neither effect on the resting state of the organ nor on the histamine induced contractions

Structure (SMILES)	EC50 [1, 8]	Emax [1, 9]	Kb [2, 10]	EC50 [3, 11]	Emax [3, 12]	Kb ([6]; guinea-pig trachea)	H2-activity, comparison in words [4]	H1-activity, comparison in words [5]	further results
N=C(NCCCc1c[nH]cn1)NCCSC(c1ccccc1)c1ccccc1 [Compound I, N-[2-(diphenylmethylthio)ethyl]-N'-[3-(imidazol-4-yl)propyl] guanidine]	158 nM	100%	316 nM	794 nM	100%				H2-activity on the atrium, comparison in words ([1]; guinea-pig right atrium): most potent compounds of this series on the guinea-pig right atrium; decrease in H2-agonism, fundus, versus compound XII ([3]; fundus, extra phenyl group in compound XII): 32 fold
N=C(NCCCc1c[nH]cn1)NCCSC(c1ccccc1)c1ccc(F)cc1 (stereo not drawn) [Compound VI, N-[2-(α-phenyl-4-fluorobenzylthio)ethyl]-N'-[3-(imidazol-4-yl)propyl]guanidine]	1260 nM	80%	251 nM	3160 nM	40%	158 nM	strong decrease in H2 -activity	only little or no effect at all on the H1 -antagonism	
Cc1ccccc1C(SCCNC(=N)NCCCc1c[nH]cn1)c1ccccn1 (stereo not drawn) [Compound VII, N-[3-(imidazol-4-yl)propyl]-N'-(2-[2-methyl-alpha-(2-pyridyl)benzylthio]ethyl)guanidine]	1260 nM	80%	398 nM			1000 nM	almost as potent H2 -antagonist as the para methyl and fluoro analogues	almost as potent H1 -antagonists as compound I	
Cc1ccc(C(SCCNC(=N)NCCc2c[nH]cn2)c2ccccc2)cc1 (stereo not drawn) [Compound V]	100000 nM	0%	251 nM	100000 nM	0%		Analogous results; also recorded: strong decrease in H2 -activity	Analogous results; also recorded: only little or no effect at all on the H1 -antagonism	
Cc1ccc(C(SCCNC(=N)NCCCc2c[nH]cn2)c2ccccc2)cc1 (stereo not drawn) [IV, N-[3-(imidazol-4-yl)propyl]-N'-2-[α-phenyl-4-methylbenzylthio]ethyl guanidine]	1260 nM	80%	398 nM				strong decrease in H2 -activity	only little or no effect at all on the H1 -antagonism	
